Where two headings read alike, the source gives them in different places.
Assays:
[1] = tested on: CYP3A4 or other CYP isoenzymes; conditions: cited from earlier work
[2] = cited from earlier work
Safety [3] = assay type: in vivo, human
Safety [4] = assay type: in vivo, human; remark: listed apart in the source
[5] = assay type: in vivo, human
[6] = cited from earlier work; remark: listed apart in the source
CYP system = conditions: cited from earlier work
[7] = apixaban 10 mg + atenolol 100 mg vs apixaban 10 mg

COc1ccc(-n2nc(C(N)=O)c3c2C(=O)N(c2ccc(N4CCCCC4=O)cc2)CC3)cc1 [Apixaban]
Decrease in apixaban AUC0–t when coadministered with atenolol [7]: 15%
Decrease in apixaban AUCinf when coadministered with atenolol [7]: 15%
Decrease in apixaban Cmax when coadministered with atenolol [7]: 18%
Pharmacokinetic interaction between apixaban and atenolol (apixaban 10 mg, atenolol 100 mg, single doses): no clinically relevant interaction
AUCinf (apixaban, Treatment C, apixaban 10 mg + atenolol 100 mg, geometric mean (CV %), n=14): 1878 (33) ng·h/mL
AUC(0-inf) (human, plasma, oral, 10 mg): 2160 ng·h/mL
AUC(0-t) (human, plasma, oral, 10 mg): 2100 ng·h/mL
Cmax (human, plasma, oral, 10 mg): 216 ng/mL
Tmax (human, plasma, oral, 10 mg): 3 h
half-life (human, plasma, oral, 10 mg): 13.9 h
inhibition or induction of CYP3A4 or other CYP isoenzymes [1]: does not inhibit or induce
mean elimination half-life (t1/2) ([2]; apixaban in healthy subjects): ~ 12 hours
lower apixaban AUCinf in subjects ≥120 kg ([2]; effect of body weight): 23%
lower apixaban Cmax in subjects ≥120 kg ([2]; effect of body weight): 31%
Deaths, serious AEs, major bleeding-related AEs (Safety [3]; digoxin 0.25 mg, then digoxin 0.25 mg + apixaban 20 mg once daily): No deaths, serious AEs, or major bleeding-related AEs
Number of AEs (Safety [4]; apixaban 10 mg alone, none bleeding-related): five
Deaths, serious AEs, major bleeding-related AEs (Safety [4]; single doses of apixaban 10 mg, atenolol 100 mg, or both): No deaths, serious AEs, or major bleeding-related AEs
Effect of apixaban on the PK of digoxin ([5]; apixaban 20 mg once daily, digoxin 0.25 mg once daily): no effect
bound to serum proteins ([6]; apixaban): 87%
protein-bound [6]: 87%

CC(C)NCC(O)COc1ccc(CC(N)=O)cc1 (centres unmarked) [Atenolol, atenolol]
Tolerability of coadministration with apixaban (Safety [4]; healthy subjects, atenolol 100 mg + apixaban 10 mg): generally well tolerated

C[C@H]1O[C@@H](O[C@H]2[C@@H](O)C[C@H](O[C@H]3[C@@H](O)C[C@H](O[C@H]4CC[C@@]5(C)[C@H](CC[C@@H]6[C@@H]5C[C@@H](O)[C@]5(C)[C@@H](C7=CC(=O)OC7)CC[C@]65O)C4)O[C@@H]3C)O[C@@H]2C)C[C@H](O)[C@@H]1O [Digoxin, digoxin]
induction or inhibition of the CYP system (CYP system): does not appear to induce or inhibit
Tolerability of coadministration with apixaban (Safety [3]; healthy subjects, digoxin 0.25 mg + apixaban 20 mg): generally well tolerated
Tmax ([5]; digoxin, Treatment B, digoxin 0.25 mg + apixaban 20 mg, day 20, median (min, max)): 1.00 (1.0, 2.0) h
AUC ([5]; human, serum, oral, 0.25 mg): 16.8 ng·h/mL
Cmax ([5]; human, serum, oral, 0.25 mg): 1.68 ng/mL
